Tests used:
HCT116 cells = experiment: Wound healing (scratch) assay, IncuCyte, with Loewe synergy calculation; format: cell-based, human; details: HCT116, three concentrations (statin 5/2.5/1.25 μM, niclosamide 1/0.5/0.25 μM), 48 h, vs DMSO
Method: For wound healing assays the HCT116 human colon cancer cell line was used. HCT116 cells are endogenously positive for MACC1 and S100A4 expression at the mRNA and protein level. In addition, they show decreased motility when either marker is inhibited. For wound healing (scratch) experiments cells were passaged to a density of 6×10^5 per ml and cultured for 48 h. Cells were then harvested and counted. For wound healing assays 1.2×10^5 cells were seeded in 100 μl RPMI supplemented with 10% FCS in 96 well Image Lock Plates (Essen Bioscience, Hertfordshire, UK). Cells were allowed to adhere for 6 hours. Wounds in the monolayer were applied using the IncuCyte WoundMaker (Essen Bioscience). After applying the wounds 100 μl of 2-fold concentrated drug solutions were added. DMSO treated and untreated samples served as controls. For each drug three different (niclosamide 1 μM, 0.5 μM and 0.25 μM, each statin 5 μM, 2.5 μM and 1.25 μM, MEK1 inhibitors 1 μM, 0.1 μM and 0.01 μM) concentrations and combinations thereof were applied, each in triplicate. Of all statins, we tested lovastatin, fluvastatin and atorvastatin. Wound closure was monitored every second hour in the IncuCyte system (Essen Bioscience). A pre-established image collection of HCT116 was used to teach the software detection of cells and wound. Wound confluency was expressed relative to DMSO treated controls. Synergy was analyzed using combenefit 2.021. DMSO treated samples were set to 100%. To calculate synergy, we used the Loewe isobole equation model. For the calculations dose-response curves for three single concentrations and the nine combinations thereof were used. The Loewe model was applied since there is a certain degree of target interaction already shown: first, active Wnt-signaling is important for MACC1 driving tumor progression and invasiveness (Lemos C, Clin Cancer Res, 2016) and second, S100A4 is a Wnt-signaling target gene and is found in the MACC1 induced secretome. The three single concentrations and nine combinations thereof were expressed relative to the control.

MACC1 [1] = experiment: MACC1 mRNA expression by qRT-PCR in statin-treated HCT116 cells; format: cell-based, human; details: 1-10 μM statin, 24 h, relative to DMSO treated control
Method: (§1) HCT116 cells were treated with increasing amounts (1-10 μM) of different, clinically relevant statins dissolved in DMSO. Following 24 h of treatment cells were harvested for RNA and protein isolation. MACC1 mRNA expression was analyzed by qRT-PCR and is expressed relative to DMSO treated control samples. Protein amounts were analyzed by western blot.
(§2) HCT116, SW620 and SW480 colorectal carcinoma cells were purchased from ATCC. HCT116 cells were stably transduced with GFP/ MACC1-GFP plasmids to produce MACC1 overexpressing cell lines and SW620 cells were stably transduced by sh-control/sh-MACC1 plasmids to produce MACC1 knockdown cell lines. SW480 stable MACC1 overexpressing cell lines were created using pCDNA3.1 MACC1 plasmids and the control cells were produced using pCDNA3.1 empty plasmids followed clone selection using Gentamycin (Gibco). Knock-out of MACC1 in SW620 cells was achieved by CRISPR-Cas9 based gene editing followed by Puromycin (Gibco) based selection and subsequently the clones were picked using single cell sorting. Cells were cultured in RPMI supplemented with 10% FCS in 5% CO2 humidified atmosphere and sub passaged 2-3 times a week to maintain cultures subconfluent. Drugs were solubilized in DMSO, stock concentrations were 2 mM for niclosamide (Sigma-Aldrich, St Louis, Mo., USA), 2 mM for GSK1120212 (trametinib, Selleck Chemicals, Munich, Germany) and selumetinib (AZD6244, Selleck Chemicals, Munich, Germany) and 10 mM for statins (atorvastatin, lovastatin, fluvastatin, TCI Deutschland GmbH, Eschborn, Germany). All drugs were pre-diluted to 1000× final concentration in DMSO. Control cells were treated with equal amounts of DMSO.
RNA was isolated using the Gene Matrix Universal RNA Purification Kit (EURx, Poland) according to the manufacturer's instructions. RNA was quantified and 50 ng of RNA was reverse transcribed using a reaction mix containing MuLV reverse transcriptase, 10 mM MgCl2, 1× PCR-Buffer, 250 μM pooled dNTPs, 1U RNAse inhibitor and random hexamers (all from Applied Biosystems). The reaction was performed at 42° C. for 15 min, 99° C. for 5 min and subsequent cooling at 4° C. for 5 min. The cDNA was amplified using SYBR Green chemistry (Promega) using the LightCycler 480 II system (Roche Diagnostics) at the following PCR conditions: 95° C. for 2 min followed by 45 cycles of 95° C. for 7 s, 60° C. for 10 s and 72° C. for 20 s. The primers used for quantification are as follows: MACC1 Fwd 5′-[…]-3′ and Rev 5′-[…]-3′; S100A4 Fwd 5′-[…]-3′ and Rev 5′- […]-3′. Data analysis was performed with LightCycler 480 Software release 1.5.0 SP3 (Roche Diagnostics). Mean values was calculated from RT-qPCR duplicates. Each mean value of the expressed gene was normalized to the respective RP-II cDNA. […]

MACC1 [2] = experiment: MACC1 protein by western blot in statin-treated HCT116 cells; format: cell-based, human; details: 1-10 μM statin, 24 h
Method: as §1, §2
Whole cell protein extraction was performed on 5×10^5 HCT116 and SW620 cells. Cells were lysed using RIPA buffer (50 mM Tris-HCT pH 7.5, 150 mM NaCl, 1% Nonidet P-40) supplemented with cOmplete Protease inhibitor (Roche) for 30 min at 4° C. The lysate was clarified and the protein content was measured using the BCA Kit (Pierce). 20 μg protein lysate were denatured with LDS-containing NuPage Loading buffer (invitrogen) and DTT for 10 min.
Proteins were then resolved in 10% SDS-PAGE followed by protein transfer onto PVDF membranes (BioRAD). The membrane was blocked with 5% w/v skim milk powder and 1% w/v BSA in TBST (10 mM Tris-HCL pH 8, 150 mM NaCl and 0.1% Tween 20) for 60 min. The membrane was incubated overnight with the respective primary antibodies (anti-MACC1, #HPA020081, Sigma Aldrich; S100A4, #5114, Dako and β-Actin, #31430, Invitrogen; Lamin B1, #12586s, Cell Signalling). The membranes were washed and further incubated with corresponding horseradish peroxidase-tagged secondary antibodies (anti-mouse IgG HRP-conjugated, #31430, Invitrogen and anti-rabbit IgG HRP-conjugated, #W4018, Promega) for 60 min. […]

HCT116-CMVp-Luc cells = experiment: Xenograft mouse model of liver metastasis, intrasplenic transplantation, bioluminescence imaging; format: in vivo, SCID-beige mice; details: daily p.o., alone or combined, vs solvent; for Metastasis formation to the liver (luminescence), reduced dose: statin 1.5 mg/kg, niclosamide 164 mg/kg; for Metastasis formation to the liver (luminescence), maximum human dose equivalent: statin 13 mg/kg, niclosamide 328 mg/kg
Method: Severe combined immunodeficiency (SCID)-beige mice (n=10 per group) were intrasplenically transplanted with HCT116-CMVp-Luc cells and treated daily with solvent, 13 mg/kg atorvastatin or fluvastatin (p.o.), 328 mg/kg niclosamide (p.o.) or the combination of niclosamide with one of the statins, at the indicated doses. These doses correspond to the maximum human doses established for the statins and niclosamide. Metastasis to the liver was analyzed with bioluminescence imaging after an intraperitoneal application of 150 mg/kg D-Luciferin at the experimental endpoint. Following whole animal imaging livers were removed and analyzed as isolated organs.
Severe combined immunodeficiency (SCID)-beige mice (n=10 per group) were intrasplenically transplanted with HCT116-CMVp-Luc cells and treated daily with solvent, 1.5 mg/kg atorvastatin or fluvastatin (p.o.), 164 mg/kg niclosamide (p.o.) or the combination of niclosamide with one of the statins, at the indicated doses. These doses therefore correspond to 12.5% of the maximum human dose for the statins and 50% of the maximum human dose for niclosamide. Metastasis to the liver was analyzed with bioluminescence imaging after an intraperitoneal application of 150 mg/kg D-Luciferin at the experimental endpoint. Following whole animal imaging livers were removed and analyzed as isolated organs.
All experiments were performed in accordance with the United Kingdom Coordinated Committee on Cancer Research (UKCCCR) guidelines and approved by the responsible local authorities (State Office of Health and Social Affairs, Berlin, Germany). For in vivo drug testing a xenograft mouse model was used as described earlier (Stein 2009 Nat Med, Sack 2011 J Natl Cancer Inst,
Juneja & Kobelt 2017 Plos Biol). In brief, HCT116-CMVp-LUC cells (5×10^5 cells per mouse, resuspended in 50 μL PBS) were intrasplenically transplanted into 6-week-old female SCID beige (SCID bg/bg) mice. The animals were assigned randomly into treatment groups.
Drugs were administered as a suspension using a gavage tube. Both niclosamide (either 328 mg/kg or 164 mg/kg) and a statin (atorvastatin or fluvastatin, at 13 mg/kg or 1.5 mg/kg) were administered daily, orally. Control mice were treated with the appropriate volume of solvent solution. The in vivo experimentation and luminescence imaging were conducted as described below.
For luminescence imaging, mice were anesthetized with 5% Isoflurane and received intraperitoneally 150 mg/kg D-luciferin (Biosynth, Staad, Switzerland) dissolved in sterile PBS. Anesthesia was maintained with 2% isoflurane. Imaging was performed with the NightOWL LB 981 system (Berthold Technologies, Bad Wildbad, Germany). ImageJ version 1.48v (NIH, Bethesda, Md.) was used for color coding of signal intensity (presenting a 256 grayscale) and overlay pictures.

| SMILES | Wound closure (cellular motility), single agents (HCT116 cells) | MACC1 mRNA expression (MACC1 [1]) | MACC1 protein (MACC1 [2]) | Metastasis formation to the liver (luminescence), reduced dose (HCT116-CMVp-Luc cells) | Metastasis formation to the liver (luminescence), maximum human dose equivalent (HCT116-CMVp-Luc cells) |
| --- | --- | --- | --- | --- | --- |
| CC[C@H](C)C(=O)O[C@H]1C[C@@H](C)C=C2C=C[C@H](C)[C@H](CC[C@@H]3C[C@@H](O)CC(=O)O3)[C@H]21 [lovastatin] | dose dependent reduction of wound closure ability | shown to reduce | shown to reduce |  |  |
| CC(C)c1c(C(=O)Nc2ccccc2)c(-c2ccccc2)c(-c2ccc(F)cc2)n1CC[C@@H](O)C[C@@H](O)CC(=O)O [atorvastatin] | dose dependent reduction of wound closure ability | shown to reduce | shown to reduce | no reduction in metastasis formation | significantly reduced |
| CC(C)n1c(/C=C/[C@H](O)C[C@H](O)CC(=O)O)c(-c2ccc(F)cc2)c2ccccc21 (racemic) [fluvastatin] | dose dependent reduction of wound closure ability | shown to reduce | shown to reduce | no reduction in metastasis formation | significantly reduced |
| O=C(Nc1ccc([N+](=O)[O-])cc1Cl)c1cc(Cl)ccc1O [niclosamide, 5-Chloro-N-(2-chloro-4-nitrophenyl)-2-hydroxybenzamide] | dose dependent reduction of wound closure ability |  |  | no reduction in metastasis formation | significantly reduced |
| O=C(O)C[C@H](O)C[C@H](O)/C=C/c1c(C2CC2)nc2ccccc2c1-c1ccc(F)cc1 [Pitavastatin] |  | shown to reduce | shown to reduce |  |  |
